Assay results: US4053580A, “Microsealed pharmaceutical delivery device” (G. D. Searle & Co., priority 1975, dated 1977)
One block for each compound: values may come before it.

How the values were obtained:
Format in all cases: physicochemical
[1] = Release of pharmaceutical from microsealed silicone delivery device (release rate and kinetics); conditions: device: 2 parts drug in 2 parts 40% PEG (MW 380-420) in water, Silastic 382 matrix, Silastic tubing
Excerpt: amount of pharmaceutical released decreases with time and Q - t
Those skilled in the pharmaceutical arts will know how to determine toxic levels of a given pharmaceutical, and the minimum effective dose. With this information a proper dosage form can be prepared by measuring the in vivo rate of elution of a given pharmaceutical by standard analytic tecniques e.g. spectroscopic or radio immunoassay analysis. In vitro diffusion of the pharmaceutical from a delivery device may be determined by the methods of Chien and Lambert, J. Pharm. Sci., 63, 365 (1974) or by methods described in U.S. Pat. No. 3,710,795.
A biologically acceptable silicone polymer matrix containing a pharmaceutical in a hydrophilic solvent system is prepared as follows: […] of ethynodiol diacetate at 37° C. by vigorous agitation for 10 minutes. To this mixture is added 6 parts of liquid silicone polymer of the formula [drawing 5] sold as Silastic® Medical Grade 382 Elastomer by Dow-Corning and this combination is stirred with a mechanical mixer at 1000 rpm for 28 minutes. 0.015 Parts of a cross-linking agent (stannous octanoate is added to the combination and stirring is continued for 2 minutes. The combination is placed in a silicone rubber tubing (I.D. 3.18mm, 0.D. 6.35mm sold by Dow-Corning as Medical Grade Silastic Tubing No. 601-365). This tubing is a silicone polymer of the formula The system is allowed to cross-link for 1 hour and then the tubing is sectioned to provide pharmaceutical delivery devices with the desired amount of pharmaceutical. The ends of the sections may be sealed or left open and additional openings may be made in the walls of the tubing to facilitate higher but still constant rates of release. This device releases 315.6 mcg/cm^2 /day of ethynodiol diacetate. Replacement of the ethynodiol diacetate with 2 parts of one of the following pharmaceuticals provides the indicated release rate: […]

[2] = Solubility of pharmaceutical (Cl) in hydrophilic solvent system at 37° C, 24 h shaking; conditions: organic solvent or mixture
Description: Solubility of a pharmaceutical (Cl) is measured by constant shaking for 24 hours an excess amount of powdered pharmaceutical in 10 ml. of a hydrophilic solvent system at 37° C. The solution is filtered and the content of the pharmaceutical is measured.
(§1) Table I is illustrative of the relation between Cl, Kb, release rate, and kinetics of release of 17α-ethynyl-4-estrene-3β,17β-diol 3,17-diacetate (ethynodiol diacetate) in a hydrophilic solvent system of polyethylene glycol having a molecular weight of about 400.

[3] = Release of pharmaceutical from microsealed silicone delivery device (release rate and kinetics); conditions: for Kinetics of release: Q - t = partition controlled, constant release independent of time
[4] = Partition coefficient (Kb) between hydrophilic solvent system and silicone polymer matrix
Description: Partition coefficient K(b) is measured by immersing a known surface area of biologically acceptable silicone polymer matrix material in a solution of the pharmaceutical in the hydrophilic solvent system with constant shaking for 24 hours and then measuring the amount of pharmaceutical remaining in the solvent system.
Ci = initial concentration of pharmaceutical
Cl = Equilibrium concentration of pharmaceutical
as §1

SMILES: COC(=O)C1CC2=CC(=O)CCC2(C)C2CCC3(C)C(CCC34CCC(=O)O4)C12 (stereo not drawn) [17-hydroxy-7β-methoxycarbonyl-3-oxo-17α-pregn-4-ene-21-carboxylic acid γ-lactone]
Release rate [1]: 63.08 mcg/cm^2 /day

SMILES: CC(=O)O[C@]1(C(C)=O)CC[C@H]2[C@@H]3CCC4=CC(=O)CC[C@@H]4[C@H]3[C@@H](C)C[C@@]21C [17α-acetoxy-11β-methyl-19-norpregn-4-ene-3,20-dione]
Release rate [1]: 51.89 mcg/cm^2 /day

SMILES: C#C[C@]1(OC(C)=O)CC[C@H]2[C@@H]3CCC4=C[C@@H](OC(C)=O)CC[C@@H]4[C@H]3CC[C@@]21C [ethynodiol diacetate, 17α-ethynyl-4-estrene-3β,17β-diol 3,17-diacetate]
Release rate [1]: 315.6 mcg/cm^2 /day | solubility at 24 h ([2]; 30% PEG 400, 37° C): 64.6 µg/mL | solubility at 24 h ([2]; 50% PEG 400, 37° C): 156 µg/mL | solubility at 24 h ([2]; 60% PEG 400, 37° C): 437 µg/mL | solubility at 24 h ([2]; 80% PEG 400, 37° C): 4460 µg/mL | solubility at 24 h ([2]; 100% PEG 400, 37° C): 45600 µg/mL | Release rate time dependence with alternative solvent systems ([3]; 1,3-butanediol, propylene glycol, PEG 4000, PEG 6000, Solketal, Medical Fluid 360 solvent systems): independent of time | Release from devices with alternative solvent systems ([3]; 1,3-butanediol, propylene glycol, PEG 4000, PEG 6000, Solketal, Medical Fluid 360 solvent systems, prepared as for PEG 400): 150 - 275 mcg/cm^2 | Rate of Pharmaceutical Release ([3]; 30% PEG 400): 297.8 gm/10^6 cm^2/day | Kinetics of release ([3]; 30% PEG 400): Q - t | Rate of Pharmaceutical Release ([3]; 50% PEG 400): 315.6 gm/10^6 cm^2/day | Kinetics of release ([3]; 50% PEG 400): Q - t | Rate of Pharmaceutical Release ([3]; 60% PEG 400): 319.4 gm/10^6 cm^2/day | Kinetics of release ([3]; 60% PEG 400): Q - t | Rate of Pharmaceutical Release ([3]; 80% PEG 400): 1203 gm/10^6 cm^2/day^1/2 | Rate of Pharmaceutical Release ([3]; 100% PEG 400): 1095 gm/10^6 cm^2/day^1/2 | Release rate from silicone rubber implantates, relation to time ([3]; in the absence of microsealed compartments containing a suitable hydrophilic solvent): porportional to the square root of time (T^1/2) | Kb/Cl ([4]; 30% PEG 400): 0.355 mL/µg | Kb/Cl ([4]; 50% PEG 400): 0.061 mL/µg | Kb/Cl ([4]; 60% PEG 400): 0.0078 mL/µg | Kb/Cl ([4]; 80% PEG 400): 7.4e-05 mL/µg | Kb/Cl ([4]; 100% PEG 400): 7e-07 mL/µg

SMILES: CC(=O)S[C@@H]1CC2=CC(=O)CC[C@]2(C)[C@H]2CC[C@@]3(C)[C@@H](CC[C@@]34CCC(=O)O4)[C@H]12 [7α-acetylthio-17α-(2-carboxyethyl)-17β-hydroxyandrost-4-en-3-one lactone]
Release rate [1]: 18.25 mcg/cm^2 /day

More lines, now with the values ahead:

Release rate [1]: 55.1 mcg/cm^2 /day
SMILES: CC(=O)OCC(=O)[C@H]1CC[C@H]2[C@@H]3CCC4=CC(=O)CC[C@]4(C)[C@H]3CC[C@]12C [Desoxycorticosterone acetate]

Release rate [1]: 4.23 mcg/cm^2 /day
SMILES: Cc1ncc([N+](=O)[O-])n1CCO [metronidazole]
